The subject of test [1] is Rat cardiomyocytes (H9c2). Briefly: GD-induced myocardial cell damage model, CCK-8, SGLT2 inhibitors with L-menthol (Example 9). The class given is cell-based. Particulars: single drugs: SGLT2 inhibitor 50 μM or menthol 200 μM; GD 36-48 h; untreated group 54.7%.
Test [2] concerns intracellular calcium concentration. Briefly: Intracellular calcium ion concentration with calcium probe Fluo4-AM (Example 5). It counts as cell-based. Particulars: cariporide 100 μM, empagliflozin 50 μM, menthol 200 μM, combination 50 μM + 200 μM. From the text:
Intracellular calcium overload is an important factor in the transition of myocardial cells from reversible to irreversible damage. Intracellular calcium overload can be seen in a variety of cardiac pathological states, such as cardiac remodeling, myocardial ischemia-reperfusion injury, viral myocarditis, dilated cardiomyopathy, arrhythmias, and congestive heart failure. […] Empagliflozin can act on the sodium-hydrogen exchanger 1 (NHE1) on the myocardial cell membrane. When myocardial ischemia occurs, myocardial cell energy metabolism is impaired, and myocardial cells switch from fatty acid metabolism to sugar-free glycolysis, producing a large amount of lactic acid, which reduces the intracellular pH. As a regulatory protein for cell pH homeostasis, NHE1 can transport H^+ out of the cell by exchanging extracellular sodium ions, resulting in an increase in the intracellular sodium ion concentration. […] When mitochondrial function is impaired, the release of ROS increases, and ROS can further stimulate L-type calcium channels, promoting Ca^2+ influx, creating a vicious cycle. Empagliflozin inhibits the activity of NHE1 and can indirectly reduce the intracellular calcium ion concentration. Menthol, as an L-type calcium channel blocker, can synergistically reduce the intracellular calcium ion concentration with empagliflozin, playing a synergistic role. In order to verify this synergistic mechanism, the intracellular calcium ion concentration was detected using the calcium ion probe Fluo4-AM.
The experiment was divided into 5 groups, including control group (no drug group), cariporide group (positive control group, 100 μM), EMPA-50 (empagliflozin, 50 μM), M-200 (menthol, 200 μM), and E50+M200 (combination of 50 μM empagliflozin and 200 μM menthol).
• (1) Take an appropriate amount of Fluo4-AM stock solution (2 mM, BeyoTime, S1060) and dilute it to a 10 μM working solution with HBSS; • (2) For the cells to be tested (covering the bottom of the dish), remove the culture medium and wash with HBSS three times; • (3) Add 25 μL of Fluo4-AM working solution to each well, and then add 25 μL of compound solution to each well; • (4) Incubate at 37° C. for 30 min for fluorescent probe loading; • (5) Wash three times with HBSS, and add 100 μL of HBSS containing 10 mM CaCl2) to each well. Detect quantitatively the fluorescence of Fluo4-AM using a multifunctional fluorescence microplate reader (excitation wavelength 488 nm, emission wavelength 520 nm) to determine the changes in intracellular calcium ions.
Since empagliflozin indirectly affects intracellular calcium concentration by inhibiting NHE1, the intracellular environment was made acidic by using ammonium chloride solution to simulate the environment during myocardial ischemia, and the effect of the administered composition on intracellular calcium ions was tested. The NHE1 inhibitor cariporide was used as a positive control. The above step (3) was changed to add 25 μL of Fluo4-AM working solution to each well, mix the test compound with 80 mM NH4Cl solution at a 1:1 ratio, and then add 25 μL mixed solution of the compound and NH4Cl to each well (the final concentration of NH4Cl was 20 mM), and the remaining steps were the same as above.

Molecule canagliflozin had a cell survival rate in test [1] of 60.2%. Regarding `CCOc1ccc(Cc2cc([C@@H]3O[C@H](CO)[C@@H](O)[C@H](O)[C@H]3O)ccc2Cl)cc1` [dapagliflozin], the cell survival rate in test [1] is listed as 58.9%. The molecule `CCOc1ccc(Cc2cc([C@]34OC[C@](CO)(O3)[C@@H](O)[C@H](O)[C@H]4O)ccc2Cl)cc1` [ertugliflozin] returned a cell survival rate in test [1] of 58.6%. Turning to `CC(C)c1ccc(C(=O)NC(=N)N)cc1S(C)(=O)=O` [cariporide], the “effect on intracellular calcium concentration (Fluo4-AM fluorescence)” value in test [2] (NH4Cl present (20 mM, acidic intracellular conditions)) is “significantly reduce intracellular calcium concentration”; in test [2] (absence of NH4Cl) it was “almost no effect”.

The record behind these values is patent publication US20250360091A1, “COMBINATION OF SGLT2 INHIBITOR AND MENTHOL AND USE THEREOF IN TREATMENT OF HEART DISEASE” (EAST CHINA UNIVERSITY OF SCIENCE AND TECHNOLOGY, priority 2023, published 2025).
